US7901893B2, “NPC1L1 (NPC3) and methods of identifying ligands thereof” (Merck Sharp & Dohme Corp., priority 2004, dated 2011)
“Also recorded” adds a separate entry of the source.

What was measured:
[1] = tested on: brush border membranes from NPC1L1 knockout (−/−) mice; assay: Binding assay with brush border membranes from NPC1L1 deficient mice; design: species or system mouse
Protocol: Brush border membranes vesicles were prepared from intestinal tissues of wild type and NPC1L1 knockout (−/−) mice. 15, 30 and 60 μg protein/assay of brush border membranes vesicles were incubated with 4 nM ^35S-2 in buffer A for 3 hours at 37° C. in the presence and absence of 100 μM EZE-glucuronide.
For FIG. 14A, enterocyte brush border membranes were prepared from NPC1L1 deficient male mice and same sex wild-type littermates, and tested for binding of 1. […] Membranes from wild type mice are on the left and from NPC1L1 deficient mice on the right.

human NPC1L1 = target: T1, human NPC1L1 (Homo sapiens, UniProt Q9UHC9, G1187D/M616T/T1073A); assay: ^35S-2 competition binding, human NPC1L1 transfected CHO cells; design: expressed in transfected cells; host or cells: CHO cells (pCDNA3, XbaI/NotI fragment); conditions: for Kd: 5 nM ^35S-2, 2 hours at 37° C., read-out: affinity (Kd) for human recombinant NPC1L1
T1 sequence (Q9UHC9 22-1332 isoform Q9UHC9-2 M616T/T1046A/G1160D limits assumed): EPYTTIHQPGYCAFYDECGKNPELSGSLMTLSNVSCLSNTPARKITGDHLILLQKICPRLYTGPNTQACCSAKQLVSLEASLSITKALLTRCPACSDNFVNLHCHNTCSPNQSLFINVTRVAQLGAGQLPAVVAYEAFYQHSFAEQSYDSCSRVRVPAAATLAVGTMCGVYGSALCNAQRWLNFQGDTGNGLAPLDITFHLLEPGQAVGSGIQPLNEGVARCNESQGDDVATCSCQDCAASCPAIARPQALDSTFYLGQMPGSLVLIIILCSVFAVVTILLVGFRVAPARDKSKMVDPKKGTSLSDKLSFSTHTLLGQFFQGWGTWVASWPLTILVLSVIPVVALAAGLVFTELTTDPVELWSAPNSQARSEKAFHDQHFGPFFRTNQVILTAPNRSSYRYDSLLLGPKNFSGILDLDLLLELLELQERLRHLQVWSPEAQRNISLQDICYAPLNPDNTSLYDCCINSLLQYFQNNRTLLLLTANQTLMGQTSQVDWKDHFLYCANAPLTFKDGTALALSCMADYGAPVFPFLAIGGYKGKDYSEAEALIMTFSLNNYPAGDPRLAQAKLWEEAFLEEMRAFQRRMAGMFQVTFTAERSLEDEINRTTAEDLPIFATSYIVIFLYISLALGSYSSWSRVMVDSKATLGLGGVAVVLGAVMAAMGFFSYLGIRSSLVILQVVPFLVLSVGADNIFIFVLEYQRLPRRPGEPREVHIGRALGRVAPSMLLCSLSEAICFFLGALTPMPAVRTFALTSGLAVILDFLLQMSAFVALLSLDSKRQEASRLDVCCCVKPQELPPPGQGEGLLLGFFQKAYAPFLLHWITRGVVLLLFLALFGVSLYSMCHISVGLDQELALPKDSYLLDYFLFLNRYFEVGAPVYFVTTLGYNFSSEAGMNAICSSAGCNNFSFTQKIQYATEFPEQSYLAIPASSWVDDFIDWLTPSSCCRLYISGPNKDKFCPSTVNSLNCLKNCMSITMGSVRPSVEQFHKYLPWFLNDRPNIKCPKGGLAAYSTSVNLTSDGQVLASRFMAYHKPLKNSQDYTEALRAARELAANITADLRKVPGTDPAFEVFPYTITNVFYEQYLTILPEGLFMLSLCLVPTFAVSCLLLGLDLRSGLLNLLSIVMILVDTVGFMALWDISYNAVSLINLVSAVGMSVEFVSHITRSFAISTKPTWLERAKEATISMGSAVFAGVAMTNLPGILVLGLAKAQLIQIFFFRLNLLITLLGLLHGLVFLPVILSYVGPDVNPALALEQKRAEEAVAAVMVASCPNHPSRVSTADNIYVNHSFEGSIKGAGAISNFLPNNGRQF
Protocol: Human NPC1L1 transfected CHO cells (˜600,000 cells/assay) were incubated with 5 nM ^35S-2 (˜1 million dpm/assay) in buffer A for 2 hours at 37° C. in the absence or presence of increasing concentrations of EZE-glucuronide (compound 1), compounds 2, 3, 5, 6, or 8.

With `O=C(O)[C@H]1O[C@@H](Oc2ccc([C@@H]3[C@@H](CC[C@H](O)c4ccc(F)cc4)C(=O)N3c3ccc(F)cc3)cc2)[C@H](O)[C@@H](O)[C@@H]1O` [Compound 1, Ezetimibe glucuronide] the “specific binding to membranes from NPC1L1 deficient mice” value ([1]; 500 nM 1, 0.03% taurocholate, 0.05% digitonin) was “no detectable specific binding affinity; also recorded: virtually undetectable” and the Kd (human NPC1L1) was 907 nM.

In the case of `CS(=O)(=O)NCC#Cc1ccc(N2C(=O)[C@H](CC[C@H](O)c3ccc(F)cc3)[C@H]2c2ccc(O[C@@H]3O[C@H](C(=O)O)[C@@H](O)[C@H](O)[C@H]3O)cc2)cc1` [Compound 2, 4-[(2S,3R)-3-[(3S)-3 (4-fluorophenyl)-3-hydroxypropyl]-1-(4-{3-[(methylsulfonyl)amino]prop-1-yn-1-yl}phenyl)-4-oxoazetidin-2-yl]phenyl β-D-glucopyranosiduronic acid], the “binding to membranes from NPC1L1 deficient mice” value ([1]; 4 nM ^35S-2) is reported as “no detectable binding”, the Kd (human NPC1L1) is reported as 21 nM and the “potency relative to ezetimibe glucuronide (1)” value (human NPC1L1; human recombinant NPC1L1) is reported as “approximately 50 fold”.
